According to PMC6175828, “C16-ceramide is a natural regulatory ligand of p53 in cellular stress response” (Nature Communications, 2018):

Columns and labels:
p53 [1] = biological target: T1, p53 (Homo sapiens, UniProt P04637); experiment: PVDF membrane-binding assay with purified p53; p53 immunoprecipitation with LC-MS/MS of bound ceramide; parameters: gene TP53; purified recombinant p53; endogenous p53 pulled down from A549 cells
p53 [2] = biological target: T1, p53; experiment: UV photo-crosslinking, MALDI-TOF MS and LC-MS/MS site mapping; thermal shift (Tm […] to […] °C); type: binding; parameters: gene TP53; DBD, residues 100–300
p53 [3] = biological target: T2, p53 (Homo sapiens, UniProt P04637, S241A); experiment: binding test of p53 mutant (Supplementary Figure […]), qualitative
T2 construct: gene TP53; full-length

p53 [4] = biological target: T3, p53 (Homo sapiens, UniProt P04637, R175H); experiment: binding test of p53 mutant (Supplementary Figure 4a), qualitative
T3 construct: gene TP53

p53 [5] = biological target: T4, p53 (Homo sapiens, UniProt P04637, S240E); experiment: binding test of p53 mutant (Supplementary Figure […]), qualitative
T4 construct: gene TP53; full-length

p53 [6] = biological target: T1, p53; experiment: intrinsic tyrosine fluorescence quenching titration of purified p53 DBD; PVDF membrane-binding assay; parameters: gene TP53

CCCCCCCCCCCCC/C=C/[C@@H](O)[C@H](CO)NC(=O)CCCCCCCCCCCCCCC [C16-ceramide, N-(hexadecanoyl)-sphing-4-enine]
PVDF membrane-binding assay with purified p53; p53 immunoprecipitation with LC-M (p53 [1]): these experiments demonstrated the strong preference of p53 for C16-ceramide

C#CCCCC1(CCCCCCCCC(=O)N[C@@H](CO)[C@H](O)/C=C/CCCCCCCCCCCCC)N=N1 [PAC, N-(9-(3-pent-4-ynyl-3-H-diazirin-3-yl)-nonanoyl)-D-erythro-sphingosine]
UV photo-crosslinking, MALDI-TOF MS and LC-MS/MS site mapping; thermal shift (Tm) (p53 [2]): LC-MS/MS data revealed two ceramide-modified residues, Ser240 and Ser241 (Fig. 3b), in the PAC-modified sample only

CCCCCCCCCCCCC/C=C/[C@@H](O)[C@H](CO)NC(=O)CCCCCCCCCCCCCCC[n+]1ccccc1 [PC16, D-erythro-2-N-[16′-(1′′-pyridinium)-hexadecanoyl]-sphingosine bromide]
binding test of p53 mutant (Supplementary Figure 4), qualitative (p53 [3]): substitutions with aa having shorter side chains (S241A or S240E) did not affect the binding
binding test of p53 mutant (Supplementary Figure 4a), qualitative (p53 [4]): R175H, did not affect the binding of PC16 to p53 (Supplementary Figure 4a)
binding test of p53 mutant (Supplementary Figure 4), qualitative (p53 [5]): substitutions with aa having shorter side chains (S241A or S240E) did not affect the binding
Kd (p53 [6]): ~60 nM
